Data: patent US20230270804A1, “ANTI-HYPERCHOLESTEROLEMIA COMPOSITION AND A METHOD OF MANUFACTURING THE SAME” (NBI BIOSCIENCES PRIVATE LIMITED, priority 2020, published 2023)

Assays:
[1] = Therapeutic study: hematological parameters; format: in vivo, Wistar strain albino rats; conditions: for Lymphocyte / Neutrophils: in % (unit assumed); for Eosinophil: unit assumed
Protocol: (§1) Wistar strain albino rats of body weight ranging from 190-225 g were selected for the present study. The temperature and humidity were kept at optimum (22+2° C.; 40-70% and animals were exposed to natural chronological day night cycles. The experiments were carried out in conformity with the Institutional Animal Ethics Committee.
(§2) The 6 groups were as follows: • 1. Normal Control • 2.
(§3) 1.5-2 ml blood sample was taken from retino-orbital chamber in vials for biochemical estimations at every 15 days. Investigations performed included detailed Total Cholesterol—TC (mg/dl), Triglyceride—TG (mg/dl), High Density Lipoprotein—HDL-C (mg/dl), Low Density Lipoprotein—LDL-C (mg/dl), Very Low-Density Lipoprotein—VLDL (mg/dl), WBC (10^3/u1), RBC (10^6/u1), Hb (g/dl), PCV (%), Reticulocyte (%), Platelet count 10^5/mm^3, Clotting time (Sec), Neutrophils, Lymphocyte, Monocyte and Eosinophil. The estimations were done with Ecoline kits from Erba Mannheim, ERBA diagnostics Mannheml, Germany using Semi Autoanalyzer RX50 of MicroLabs Instruments and COUNCELL21 of Tulip Diagnostics Pvt. Ltd. Lipid peroxidation (Plasma & Liver), HMG Co-Reductase, Creatine phosphokinase (CPK), Lactate dehydrogenase (LDH), SGOT and SGPT were estimated at the end of both the studies using the kits.

[2] = system: hypercholesterolemia induced wistar rat's models; assay: Prophylactic study: lipid profile (TC, TG, HDL-C, LDL-C, VLDL); format: in vivo, Wistar strain albino rats; conditions: for HDL-C / LDL-C / TC / TG / VLDL: HFD+normal diet
Protocol: as §1, §2, §3

For `CC(C)c1c(C(=O)Nc2ccccc2)c(-c2ccccc2)c(-c2ccc(F)cc2)n1CC[C@@H](O)C[C@@H](O)CC(=O)O` [Statin, Atorvastatin], the Clotting time ([1]; HFD continued, day 0) was 113.33 ± 1.15 s, the Hb ([1]; HFD continued, day 0) was 12.30 ± 0.20 g/dL and the Monocyte ([1]; HFD continued, day 0) was 1.35%. For the same compound, the PCV ([1]; HFD continued, day 0) was 42.57 ± 1.36%, the Platelet count ([1]; HFD continued, day 0) was 1070 ± 13.9 10³/µL and the RBC ([1]; HFD continued, day 0) was 7.93 ± 0.15 10^6/μl. It also gave a Reticulocyte ([1]; HFD continued, day 0) of 1.28 ± 0.03%, a Lymphocyte ([1]; HFD continued, day 0) of 72 and a Neutrophils ([1]; HFD continued, day 0) of 25.5. It also gave an Eosinophil ([1]; HFD continued, day 0) of 1.25%, a Clotting time ([1]; HFD continued, day 15) of 114.33 ± 1.15 s and a Hb ([1]; HFD continued, day 15) of 12.40 ± 0.20 g/dL. For the same compound, the Monocyte ([1]; HFD continued, day 15) was 1.35%, the PCV ([1]; HFD continued, day 15) was 43.43 ± 1.53% and the Platelet count ([1]; HFD continued, day 15) was 1070 ± 11.6 10³/µL. The RBC ([1]; HFD continued, day 15) was 8.07 ± 0.15 10^6/μl, the WBC ([1]; HFD continued, day 15) was 8.58 ± 0.32 103/μl and the Lymphocyte ([1]; HFD continued, day 15) was 72. For the same compound, the Neutrophils ([1]; HFD continued, day 15) was 25.5, the Eosinophil ([1]; HFD continued, day 15) was 1.25% and the Clotting time ([1]; HFD continued, day 30) was 114.37 ± 0.71 s. For the same compound, the Hb ([1]; HFD continued, day 30) was 12.83 ± 0.25 g/dL, the PCV ([1]; HFD continued, day 30) was 42.85 ± 0.25% and the Platelet count ([1]; HFD continued, day 30) was 1087 ± 3.61 10³/µL. The RBC ([1]; HFD continued, day 30) was 7.95 ± 0.03 10^6/μl, the Reticulocyte ([1]; HFD continued, day 30) was 1.31 ± 0.03% and the WBC ([1]; HFD continued, day 30) was 8.72 ± 0.07 103/μl. It also gave a Lymphocyte ([1]; HFD continued, day 30) of 71.2, a Neutrophils ([1]; HFD continued, day 30) of 26 and an Eosinophil ([1]; HFD continued, day 30) of 1.28%. The Clotting time ([1]; HFD continued, day 45) was 114.40 ± 0.46 s, the Hb ([1]; HFD continued, day 45) was 12.88 ± 0.28 g/dL and the Monocyte ([1]; HFD continued, day 45) was 1.33%. For the same compound, the PCV ([1]; HFD continued, day 45) was 42.93 ± 0.42%, the Platelet count ([1]; HFD continued, day 45) was 1080 ± 14.5 10³/µL and the RBC ([1]; HFD continued, day 45) was 7.90 ± 0.05 10^6/μl. For the same compound, the Reticulocyte ([1]; HFD continued, day 45) was 1.33 ± 0.02%, the WBC ([1]; HFD continued, day 45) was 8.65 ± 0.08 103/μl and the Lymphocyte ([1]; HFD continued, day 45) was 71.67. It also gave a Neutrophils ([1]; HFD continued, day 45) of 25.73, an Eosinophil ([1]; HFD continued, day 45) of 1.27% and a Clotting time ([1]; HFD continued, day 60) of 113.33 ± 1.24 s. For the same compound, the Hb ([1]; HFD continued, day 60) was 12.76 ± 0.28 g/dL, the PCV ([1]; HFD continued, day 60) was 42.53 ± 0.57% and the Platelet count ([1]; HFD continued, day 60) was 1070 ± 17 10³/µL. The RBC ([1]; HFD continued, day 60) was 7.83 ± 0.09 10^6/μl, the WBC ([1]; HFD continued, day 60) was 8.57 ± 0.12 103/μl and the Lymphocyte ([1]; HFD continued, day 60) was 71.67. For the same compound, the Neutrophils ([1]; HFD continued, day 60) was 25.70, the Eosinophil ([1]; HFD continued, day 60) was 1.28% and the Clotting time ([1]; HFD discontinued, day 0) was 113.33 ± 1.53 s. The Hb ([1]; HFD discontinued, day 0) was 12.53 ± 0.38 g/dL, the Monocyte ([1]; HFD discontinued, day 0) was 1.35% and the PCV ([1]; HFD discontinued, day 0) was 41.43 ± 1.07%. The Platelet count ([1]; HFD discontinued, day 0) was 1080 ± 11 10³/µL, the RBC ([1]; HFD discontinued, day 0) was 7.73 ± 0.52 10^6/μl and the Reticulocyte ([1]; HFD discontinued, day 0) was 1.24 ± 0.04%. For the same compound, the WBC ([1]; HFD discontinued, day 0) was 8.67 ± 0.59 103/μl, the Lymphocyte ([1]; HFD discontinued, day 0) was 72 and the Neutrophils ([1]; HFD discontinued, day 0) was 25.87. The Eosinophil ([1]; HFD discontinued, day 0) was 1.25%, the Clotting time ([1]; HFD discontinued, day 15) was 113.50 ± 1.00 s and the Hb ([1]; HFD discontinued, day 15) was 12.58 ± 0.08 g/dL. The Monocyte ([1]; HFD discontinued, day 15) was 1.35%, the PCV ([1]; HFD discontinued, day 15) was 41.63 ± 1.02% and the Platelet count ([1]; HFD discontinued, day 15) was 1087 ± 8.02 10³/µL. For the same compound, the RBC ([1]; HFD discontinued, day 15) was 7.97 ± 0.32 10^6/μl, the Reticulocyte ([1]; HFD discontinued, day 15) was 1.26 ± 0.01% and the WBC ([1]; HFD discontinued, day 15) was 8.57 ± 0.42 103/μl. The Lymphocyte ([1]; HFD discontinued, day 15) was 72, the Neutrophils ([1]; HFD discontinued, day 15) was 25.97 and the Eosinophil ([1]; HFD discontinued, day 15) was 1.25%. It also gave a Clotting time ([1]; HFD discontinued, day 30) of 113.00 ± 0.70 s, a Hb ([1]; HFD discontinued, day 30) of 12.62 ± 0.07 g/dL and a PCV ([1]; HFD discontinued, day 30) of 41.64 ± 0.07%. For the same compound, the Platelet count ([1]; HFD discontinued, day 30) was 1086 ± 8.19 10³/µL, the RBC ([1]; HFD discontinued, day 30) was 7.73 ± 0.03 10^6/μl and the Reticulocyte ([1]; HFD discontinued, day 30) was 1.27 ± 0.02%. The WBC ([1]; HFD discontinued, day 30) was 8.58 ± 0.04 103/μl, the Lymphocyte ([1]; HFD discontinued, day 30) was 71.3 and the Neutrophils ([1]; HFD discontinued, day 30) was 26.1. The Eosinophil ([1]; HFD discontinued, day 30) was 1.26%, the Clotting time ([1]; HFD discontinued, day 45) was 113.17 ± 0.35 s and the Hb ([1]; HFD discontinued, day 45) was 12.87 ± 0.26 g/dL. The Monocyte ([1]; HFD discontinued, day 45) was 1.27%, the PCV ([1]; HFD discontinued, day 45) was 41.42 ± 0.50% and the Platelet count ([1]; HFD discontinued, day 45) was 1070 ± 18.7 10³/µL. The RBC ([1]; HFD discontinued, day 45) was 7.65 ± 0.08 10^6/μl, the Reticulocyte ([1]; HFD discontinued, day 45) was 1.28 ± 0.07% and the WBC ([1]; HFD discontinued, day 45) was 8.51 ± 0.14 103/μl. For the same compound, the Lymphocyte ([1]; HFD discontinued, day 45) was 71.58, the Neutrophils ([1]; HFD discontinued, day 45) was 25.9 and the Eosinophil ([1]; HFD discontinued, day 45) was 1.25%. It also gave a Clotting time ([1]; HFD discontinued, day 60) of 112.04 ± 1.28 s, a Hb ([1]; HFD discontinued, day 60) of 12.74 ± 0.27 g/dL and a Monocyte ([1]; HFD discontinued, day 60) of 1.25%. For the same compound, the PCV ([1]; HFD discontinued, day 60) was 41.01 ± 0.64%, the Platelet count ([1]; HFD discontinued, day 60) was 1060 ± 20.3 10³/µL and the RBC ([1]; HFD discontinued, day 60) was 7.57 ± 0.11 10^6/μl. The Reticulocyte ([1]; HFD discontinued, day 60) was 1.26 ± 0.06%, the WBC ([1]; HFD discontinued, day 60) was 8.42 ± 0.16 103/μl and the Lymphocyte ([1]; HFD discontinued, day 60) was 71.70. For the same compound, the Neutrophils ([1]; HFD discontinued, day 60) was 25.81, the Eosinophil ([1]; HFD discontinued, day 60) was 1.24% and the HDL-C ([2]; day 0) was 34.60 ± 1.50 mg/dL. For the same compound, the LDL-C ([2]; day 0) was 47.10 ± 1.25 mg/dL, the TC ([2]; day 0) was 81.95 ± 1.35 mg/dL and the TG ([2]; day 0) was 16.75 ± 1.10 mg/dL. For the same compound, the VLDL ([2]; day 0) was 2.48 ± 0.15 mg/dL, the HDL-C ([2]; day 15) was 31.56 ± 1.26 mg/dL and the LDL-C ([2]; day 15) was 48.68 ± 0.29 mg/dL. For the same compound, the TC ([2]; day 15) was 85.24 ± 1.55 mg/dL, the VLDL ([2]; day 15) was 2.86 ± 0.35 mg/dL and the HDL-C ([2]; day 30) was 35.66 ± 2.08 mg/dL. It also gave an LDL-C ([2]; day 30) of 56.60 ± 4.50 mg/dL, a TC ([2]; day 30) of 85.66 ± 4.04 mg/dL and a TG ([2]; day 30) of 22.66 ± 3.10 mg/dL. For the same compound, the VLDL ([2]; day 30) was 2.96 ± 0.02 mg/dL, the HDL-C ([2]; day 45) was 38.33 ± 5.85 mg/dL and the LDL-C ([2]; day 45) was 57 ± 4.0 mg/dL. It also gave a TC ([2]; day 45) of 87.5 ± 5.04 mg/dL, a TG ([2]; day 45) of 24.86 ± 4.20 mg/dL and a VLDL ([2]; day 45) of 3.03 ± 0.19 mg/dL. The HDL-C ([2]; day 60) was 39.60 ± 5.57 mg/dL, the LDL-C ([2]; day 60) was 57.23 ± 4.43 mg/dL and the TC ([2]; day 60) was 88.5 ± 4.44 mg/dL. The TG ([2]; day 60) was 24.4 ± 4.61 mg/dL, the VLDL ([2]; day 60) was 3.0 ± 0.13 mg/dL and the HDL-C ([2]; day 75) was 33.53 ± 1.92 mg/dL. The LDL-C ([2]; day 75) was 55.27 ± 4.39 mg/dL, the TC ([2]; day 75) was 90.95 ± 2.05 mg/dL and the TG ([2]; day 75) was 22.67 ± 4.16 mg/dL. For the same compound, the VLDL ([2]; day 75) was 2.98 ± 0.84 mg/dL, the HDL-C ([2]; day 90) was 34.26 ± 1.26 mg/dL and the LDL-C ([2]; day 90) was 52.83 ± 1.76 mg/dL. It also gave a TC ([2]; day 90) of 90.22 ± 2.10 mg/dL, a TG ([2]; day 90) of 21.93 ± 3.90 mg/dL and a VLDL ([2]; day 90) of 3.12 ± 0.79 mg/dL. The “increase in TC” value ([2]; prophylactic study, after HFD diet treatment) was 10%.
